Assay results as given in patent publication US7348453B2, “Labile linkage for compound delivery to a cell” (Mirus Bio Corporation, priority 2003, dated 2008).

How the values were obtained:
[1] = Measurement of acetal hydrolysis kinetics (absorbance vs time in buffered solutions); format: physicochemical; conditions: formaldehyde-derived vs acetaldehyde-derived acetal
From the text: To illustrate the rate of cleavage of several example ortho carboxy phenol derived acetals, we synthesized the molecules 1-3 (shown in FIG. 2) and measured the rates of acetal hydrolysis for each at pH 5.2-7.3. • Acetal 1. R′, R=alkyl; and R1, R2, R3, R4=hydrogen • Acetal 2. R′, R=alkyl; R1, R4=hydrogen; R2=carboxyl (carbon-containing group); R3=hydroxyl (heteroatom) • Acetal 3. R′=alkyl; R, R2, R3, R4=hydrogen; and R1=carboxyl (carbon-containing group)
To determine the rate of acetal hydrolysis, compounds 1-3 were added to buffered solutions (pH 7-8 with 5 mM HEPES, or pH 5-7 with 5 mM acetate) at various pH values and the absorbance of the solution was measured as a function of time (λ=302 nm for 1 and 2 and 310 nm for 3). The rate constant was determined by determining the slope of the line derived from plotting ln[1−((A∞−At)/(A28−Ao))] as a function of time t, where A28 is absorbance after >3 hours of hydrolysis, At is the absorbance at time t, and Ao is the initial absorbance. The half-life of the hydrolysis equals ln[2] divided by the rate constant.

[2] = tested on: Hepa mouse hepatoma cells; test: DNA transfection, luciferase expression (pCIluc/DW921 complexes with crosslinker); format: cell-based; conditions: pCIluc 10 μg/mL, DW921 100 μg/mL, 48 h, average of two wells
Experimental: To a solution of plasmid DNA pCIluc (10 μg/mL, 0.075 mM in phosphate, 2.6 μg/μL pCIluc; prepared according to Danko et al. 1997) in 0.5 mL of 150 mM NaCl and 5 mM TAPS pH 9 was added 100 μg/mL DW921. The complexes were then reacted with glutaraldehyde, periodate oxidized phenyl glucoside (another crosslinker containing a labile bond), or periodate oxidized salicylic galactoside at 1, 2, 4, 8, or 16 μg/mL. The complexes were then added (200 μL) to wells containing Hepa mouse hepatoma cells in Dulbecco's modified Eagle's Media containing 10% fetal bovine serum. The cells were allowed to incubate for 48 h. The cells were then harvested and assayed for luciferase expression as previously reported. The amount of transfection was reported in relative light units and is the average transfection for two separate wells of cells.

Row | Structure (SMILES) | rate of acetal hydrolysis relative to acetals derived from alkyl-substituted aldehydes (acetals 1 and 2) [1] | Relative Light Units (luciferase expression) ([2]; 2 μg/mL dialdehyde crosslinker) [Relative Light Units] | Relative Light Units (luciferase expression) ([2]; 4 μg/mL dialdehyde crosslinker) | Relative Light Units (luciferase expression) ([2]; 8 μg/mL dialdehyde crosslinker) [Relative Light Units]
1 | CC(C)[C@@H]1CC[C@@H](C)C[C@H]1OCOc1c(C(=O)O)cccc1C(=O)O [Acetal 3] | hydrolyze more slowly | – | – | –
2 | O=CCCCC=O [glutaraldehyde] | – | 620 | 1,400 Relative Light Units | 590
